Experimental data taken from US20240114902A1, “COMPOSITIONS AND METHODS FOR DETERRING OVIPOSITION BY FRUIT FLIES” (The United States of America, as represented by The …, priority 2022, published 2024).

What was measured:
Zeugodacus cucurbitae = experiment: Z. cucurbitae two-choice oviposition bioassay on pumpkin juice-infused agar; format: in vivo; design: key to Behavioral activity (Z. cucurbitae oviposition group): Negative: “negative” (i.e., oviposition reduced); Neutral: “neutral” (i.e., no effect on oviposition); Positive: “positive” (i.e., oviposition increased); conditions: for Behavioral activity (Z. cucurbitae oviposition group): individual CFFA component; for Z. cucurbitae oviposition reduction vs control agar: individual compound, 20 mg dose
Procedure: Oviposition bioassays were conducted with mated female flies, using pumpkin juice-infused agar as an oviposition substrate. A small petri dish (60×15 mm) filled with 10 mL of 1% agar mixed in pumpkin juice was used as an oviposition substrate. The agar plates were surface-treated either with 200 μL of ethanol or 200 μL of CFFA in one of 4 doses tested (20, 2, 0.2, and 0.02 mg/200 μL of ethanol), placed into a fume hood for 10 minutes for solvent evaporation prior to use in bioassays, and positioned upside-down (i.e. treated side down) on top of the 30×30×30 cm (W×L×H) screened cage 17 cm apart from each other (i.e. one each of control and CFFA treated), allowing 20 female flies (14 to 18 day-old) to oviposit on pumpkin juice agar from the bottom through the cage screen for 24 hours. Each cage was provided with a ball of water-saturated cotton, sugar, and protein hydrolysate in separate 30 mL deli cups and two oviposition substrates-one treated with CFFA diluted in ethanol and the other treated with the ethanol control. After 24 hours, Z. cucurbitae eggs in the pumpkin agar were gently separated from the agar in water and the number of eggs were individually counted. The experiment was replicated five times per treatment. CFFA was not an effective oviposition deterrent for Z. cucurbitae which is contrary to our previous work on B. dorsalis (Roh et al., 2023a). […] CFFA components were categorized into three groups “negative” (i.e., oviposition reduced), “neutral” (i.e., no effect on oviposition), and “positive” (i.e., oviposition increased) based on bioassay outcome. Using these categories, further formulations were made to determine key bioactive CFFA components in terms of oviposition deterrence on Z. cucurbitae at the equivalent ratios and concentrations of each component found in CFFA (Zhu et al. 2018). The approach involved testing the bioactivity of the negative-component blend (4c blend) for oviposition deterrence at three different doses (2, 0.2, and 0.02 mg CFFA equivalent/agar), compared with ethanol control. Further, neutral compound is added to the negative blend i.e., ‘negative+neutral’ component blend (5c blend) to identify key compounds for oviposition deterrence. The experiment was replicated five times per treatment.

[1] = tested on: Bactrocera dorsalis (OFF); experiment: OFF two-choice cage oviposition bioassay on guava juice-infused agar; format: in vivo; design: key to Activity (OFF oviposition group): Negative: “OFF negative” (i.e., oviposition reduced); Neutral: “OFF neutral” (i.e., no effect on oviposition); Positive: “OFF positive” (i.e., oviposition increased); conditions: for OFF oviposition reduction vs control agar: 20 mg/agar, 3 days; for Activity (OFF oviposition group): individual CFA component
Procedure: Evaluation of oviposition deterrence of CFA: OFF oviposition bioassays were conducted using laboratory two-choice cage experiments with guava juice-infused agar as an oviposition substrate. The agar plates were prepared by pouring 30 mL of boiled agar mixture [1000 mL distilled water, 500 mL guava juice (Deans Foods, El Paso, Texas, USA), 10 g agar, 0.6 g methylparaben, 6.7 mL 95% ethanol, and 3 mL acetic acid] into a 30 mL deli plastic cup to gel. The agar was then covered with a lid to avoid desiccation. The two-choice oviposition bioassay was conducted in screened cages using 20 mated OFF females per cage (12-18 day-old; Jang E B et al., 1997, “Attraction of female oriental fruit fly, Bactrocera dorsalis, to volatile semiochemicals from leaves and extracts of a non-host plant, Panax (Polyscias guilfoylei) in laboratory and olfactometer assays,” J. Chem. Ecol. 23:1389-1401) over 3 days. Each cage was provided with a ball of water-saturated cotton, sugar, and protein hydrolysate in separate 30 mL deli cups and two guava juice agar plates-one treated with CFA diluted in hexane and the other treated with the hexane control. The agar plates were surface-treated either with 200 μL of hexane or 200 μL of CFA in one of 4 doses tested (20, 2, 0.2, and 0.02 mg/200 μL of hexane), placed into a fume hood for 10 minutes prior to use in bioassays, and positioned upside-down (i.e., treated side down) on the center of the outside top of the screened cage 17 cm apart from each other (i.e., one each of control and CFA treated), allowing female flies to oviposit on guava juice agar from the bottom through the cage screen. After three days, OFF eggs in the guava agar were gently separated from the agar in water and the number of eggs were individually counted (up to 100 eggs) or estimated volumetrically at 1 mL OFF eggs=20,000 eggs (Stephanie Gayle personal communication). The experiment was replicated six times per treatment. Determination of bioactive oviposition deterrent components from CFA: A series of bioassays was conducted to identify key deterrent components of CFA for OFF using the same two-choice bioassay design described above. […] Ethanol was used as control and for preparing dilutions of C16:0 and C18:0. Hexane was used as control and for dilutions of the other six compounds tested. Based on the outcome of these bioassays, the eight free fatty acid components were assigned to “OFF negative” (i.e., oviposition reduced), “OFF neutral” (i.e., no effect on oviposition), and “OFF positive” (i.e., oviposition increased) compound groups. Using these groupings, four different blends were formulated (indicated in Table 1), composed at the equivalent ratios and concentrations of each component found in CFA (Zhu J J et al., 2018, supra), to determine key bioactive CFA components in terms of oviposition deterrence on OFF. The approach involved testing the bioactivity of the OFF negative-component blend (4c blend) for oviposition deterrence at three different doses (2, 0.2, and 0.02 mg CFA equivalent/agar), first comparing with hexane control, then with CFA at respective equivalent doses. As the 4c blend was not as effective as CFA, a “OFF negative+OFF neutral” component blend (6c blend) was then formulated, and its effect compared with CFA at 2 and 0.2 mg CFA equivalent/agar. Two subtraction blends with one of the two OFF neutral components removed from the 6c blend (5c-i and 5c-ii blends) were formulated and compared with the 6c blend at 2 and 0.2 mg CFA equivalent/agar. The experiment was replicated four to six times per treatment.

SMILES	effect on Z. cucurbitae oviposition (Zeugodacus cucurbitae; 0.02 mg dose)	effect on Z. cucurbitae oviposition (Zeugodacus cucurbitae; 0.2 mg dose)	effect on Z. cucurbitae oviposition (Zeugodacus cucurbitae; 2 mg dose)	Behavioral activity (Z. cucurbitae oviposition group) (Zeugodacus cucurbitae)	Z. cucurbitae oviposition reduction vs control agar (Zeugodacus cucurbitae) [%]	OFF oviposition reduction vs control agar [1] [%]	Activity (OFF oviposition group) [1]	OFF oviposition deterrence at lower dose ([1]; individual compound, 2 mg dose)
CCCCCCCC(=O)O [C8:0, caprylic acid]	not	maintained oviposition deterrence	maintained oviposition deterrence	Negative	100	95	Negative	maintained OFF oviposition deterrence
CCCCCCCCCC(=O)O [C10:0, capric acid]			either lost oviposition deterrence or increased oviposition	Negative	74	92	Negative	
